Data as given in US20230020507A1, “COMPOUND AND USE THEREOF IN TREATING AUTOIMMUNE DISEASES” (PARENCHYMA BIOTECH INC., priority 2019, published 2023).

Tests used:
[1] = system: C57BL/6 mice with autoimmune encephalomyelitis (EAE); experiment: Experimental autoimmune encephalomyelitis (EAE) model of multiple sclerosis, severity index; assay type: in vivo, mouse; conditions: 20 mg/kg intraperitoneally daily 12th to 17th day
Protocol: On day 0, myelin oligodendrocyte glycoproteins 35-55 (MOG 35-55, Peptron) (200 μg), heat-killed Mycobacterium tuberculosis (Difco, Cat No. 231141) (500 μg), and adjuvant (Complete Freund's adjuvant, Sigma Aldrich, Cat No. F5506) were mixed together and then submerged for 7 minutes. After subcutaneous injection of 100 μl of the submerged peptide into both flanks of each of C57BL/6 mice (7 weeks old, female, 17±2 g), 100 μl of pertussis toxin (Sigma Aldrich. Cat No. P2980) (200 ng) was administered intravenously to the tail.
On the 2nd day of the experiment, the same amount of pertussis toxin was administered intravenously. The mice were checked for immersion leaking from the injected site, and visually observed from the 7th day of the experiment in order to confirm the onset of multiple sclerosis.
The multiple sclerosis index was visually observed and recorded at an interval of 2 days from the 7th day of the experiment in the severity index system classified into 0-5 stages, and autoimmune encephalomyelitis symptoms were indexed according to the following items (see Table 4).

[2] = system: C57BL/6 mice with DSS-induced inflammatory bowel disease; experiment: DSS-induced inflammatory bowel disease model, severity index and colon weight:length ratio; assay type: in vivo, mouse; conditions: 20 mg/kg oral daily, compared to solvent control
Protocol: The 1.5% DSS solution was changed at an interval of 2 days. Sterile distilled water was provided for drinking from the 8th day of the experiment. Body weight and severity index were measured at an interval of 2 days from the 0th day of the experiment in order to confirm the onset of inflammatory bowel disease.
20 mg/kg of the compound per mouse was completely dissolved in DMSO corresponding to 10% (v/v) of the administered dose, and then diluted in a cremophor EL-phosphate buffered saline mixture in order to produce the final DMSO:Cremophor EL:phosphate buffered saline (1:1:8, v/v/v), followed by oral administration of 200 μl daily for a total of 10 times from the 2nd to 11th days of the experiment. An inflammatory bowel disease severity index was visually observed and recorded at an interval of 2 days according to a severity index system classified into 0 to 10 levels.
Inflammatory bowel disease symptoms were evaluated by summing the scores of three items according to the following items (Table 3).

[3] = system: C57BL/6 mice with graft-versus-host disease; experiment: Acute graft-versus-host disease model (allogeneic bone marrow transplantation), severity index; assay type: in vivo, mouse; conditions: 20 mg/kg intraperitoneally daily 4 to 9 days after transplantation; 14th day after transplantation; total of 10 points; solvent control 6.20±1.20
Protocol: The spleen of Balb/c IFN-γ knockout mouse (8 to 12 weeks old, female, 18±3 g) was excised, pulverized by adding RPMI medium, and then passed through a 40 μm cell strainer (BD Falcon), thereby obtaining a single cell suspension. The single cell suspension was centrifuged (1200 rpm, 5 minutes), and after discarding the supernatant, 1 ml of ACK (ammonium chloride/potassium bicarbonate) lysis buffer (0.15 M NH4Cl, 1 mM KHCO3, 0.1 mM Na2EDTA) was added, followed by stirring for 1 minute and then washing the same with RPMI medium.
Then, CD90.2^+ T cells were obtained from the cell suspension using Auto MACS pro (Miltenyi Biotec) (positive selection). To obtain bone marrow cells to be transplanted together with the obtained CD90.2^+ T cells, both femurs and tibias of wild-type Balb/c mice (8-12 weeks old, female, 18±3 g) were aseptically acquired. […]
Normal C57BL/6 mice (9 to 11 weeks old, female, 19±3 g) were irradiated with 850 cGy of radiation divided at an interval of 3 hours by using a radiation irradiator. […] The graft-versus-host disease severity index was evaluated at an interval of 2 days by visual observation in a severity index system that was classified into a total of 10 points with 0 to 2 points for each item including reduction of body weight, hair condition, posture, activity and skin change.

[4] = system: AOM/DSS-induced colon cancer in C57BL/6 mice; experiment: AOM/DSS-induced colon cancer mouse model, number of tumors per colon; assay type: in vivo; conditions: 20 mg/kg oral daily 7th to 21st day, 93rd day, solvent control 11.33±4.33
From the text: Sterile distilled water was provided for drinking from the 8th day of the experiment.

[5] = system: IL-6, IL-17A and IL-10 expression in lung tissue; experiment: mRNA expression of IL-6, IL-17A and IL-10 in lung tissue of GVHD mice (real-time PCR); assay type: in vivo, mouse; conditions: 20 mg/kg i.p., 15th day, compared to solvent control
From the text: (§1) On the 15th day of the experiment, the lungs of the mice were excised to prepare an mRNA sample. In order to extract mRNA, the […] was ground with a homogenizer to obtain a homogeneous suspension. […] Then, cDNA was synthesized from the isolated RNA by reverse transcription, and the expression of inflammatory cytokines was confirmed through real-time polymerase chain reaction (PCR) using iQ SYBR-Green Supermix (Bio-rad) in the CFX96 (Bio-rad) detection system. Relative values of the enzyme expression levels were compared by the ΔΔct method using GAPDH as a control enzyme. Herein, one (1) fold was set using the normal mouse […] as a control.
(§2) The real-time polymerase chain reaction was implemented under the conditions of cycles at an annealing temperature of 58° C., and the following primer sequences were used.

[6] = system: IFN-γ, IL-17A, IL-1β, IL-10 and Foxp3 expression in spinal cord lesions; experiment: mRNA expression of inflammatory and immunomodulatory factors in spinal cord of EAE mice (real-time PCR); assay type: in vivo, mouse; conditions: 20 mg/kg i.p., 42nd day, compared to solvent control
From the text: as §1, with “42nd” for “15th”, “spinal cord” for “lungs”, “mouse was” for “mice were”, “investigated” for “confirmed”, “WT” for “normal”
as §2

[7] = system: IL-1β, IL-6, IL-17A, TNF-α, IL-10 and Foxp3 expression in colon lesions; experiment: mRNA expression of inflammatory and immunomodulatory factors in colon of DSS mice (real-time PCR); assay type: in vivo, mouse; conditions: 20 mg/kg oral, 15th day, compared to solvent control
From the text: On the 15th day of the experiment, the colon of the mouse was excised to prepare an mRNA sample. In order to extract mRNA, the colon tissue was ground with a homogenizer to acquire a homogeneous suspension. […] From the isolated RNA, cDNA was synthesized by reverse transcription followed by confirming the expression of inflammatory cytokines through real-time polymerase chain reaction (PCR) using iQ SYBR-Green Supermix (Bio-rad) in the CFX96 (Bio-rad) detection system. Relative values of the enzyme expression levels were compared by the ΔΔct method using GAPDH as a control enzyme. Herein, one (1) fold was set using the normal mouse colon as a control.
The real-time polymerase chain reaction was implemented under the conditions of cycles at an annealing temperature of 58′° C. and the following primer sequences were used.

[8] = scale 0-5, solvent control 3.33±0.17

O=C(Cc1c[nH]c2ccc(Cl)cc12)Nc1ccc(Cl)c(F)n1 [Compound 26, 2-(5-chloro-1H-indol-3-yl)-N-(5-chloro-6-fluoropyridin-2-yl)acetamide]
treatment effects on EAE severity index compared to solvent control from the 16th day, maintained after administration was stopped [1]: statistically significant treatment effects | severity index (EAE), 18th day, acute reaction period [1, 8]: 1.33±0.56 | severity index (EAE), 36th day, chronic reaction period [1, 8]: 1.33±0.22 | inflammatory bowel disease severity index ([2]; 2nd to 11th day, 10th day of the experiment): statistically significant therapeutic effects | colon weight:length ratio (intestinal inflammation) ([2]; 15th day of the experiment): significantly suppressed | graft-versus-host disease severity index [3]: 2.80±0.80 | number of tumors in the colon [4]: 3.17±1.17 | expression level of IL-6 in lung tissue [5]: significantly reduced | expression level of IL-10 in lung tissue [5]: significantly increased | expression level of IL-17A in lung tissue [5]: significantly reduced | expression level of Foxp3 in spinal cord lesions [6]: significantly increased | expression level of IFN-γ in the spinal cord lesion [6]: significantly reduced | expression level of IL-1β in the spinal cord lesion [6]: significantly reduced | expression level of IL-10 in spinal cord lesions [6]: significantly increased | expression level of IL-17A in the spinal cord lesion [6]: significantly reduced | expression level of Foxp3 in the colon lesion [7]: significantly increased | expression level of IL-1β in colon lesions [7]: significantly reduced | expression level of IL-6 in colon lesions [7]: significantly reduced | expression level of IL-10 in the colon lesion [7]: significantly increased | expression level of IL-17A in colon lesions [7]: significantly reduced | expression level of TNF-α in colon lesions [7]: significantly reduced
